The target in one series is T1, phosphodiesterase 5 (Homo sapiens, UniProt O76074).
T1 construct: The thrombocytes are lysed by ultrasound and used in the PDE 5 assay; from tissue; host or cells: human thrombocytes (platelets) from citrate-anticoagulated blood, lysed by ultrasound
The series can be described thus: PDE 5 activity in enzyme preparations from human thrombocytes. The class given is biochemical. Conditions: human thrombocyte enzyme, 0.5 μM [3H]cGMP; read-out: IC50, inhibition of phosphodiesterase 5. The procedure: PDE 5 activity is determined in enzyme preparations from human thrombocytes. Human blood was anti-coagulated with citrate. By centrifuging at 700 g for 20 minutes at room temperature, the thrombocyte-rich plasma in the supernatant is separated from the erythrocytes and leukocytes. The thrombocytes are lysed by ultrasound and used in the PDE 5 assay. With a few modifications, the phosphodiesterase activity is determined by the method described by Thompson et al. (Thompson, W. J., Appleman, M. M., Assay of cyclic nucleotide phosphodiesterase and resolution of multiple molecular forms of the enzyme, Adv. Cycl. Nucl. Res. 1979, 10, 69-92). The reaction mixtures contain 50 mM of tris HCl (pH 7.4), 5.5 mM of MgCl2, the inhibitors in variable concentrations, the enzyme preparation and the fuirther components necessary for determining the individual isoenzymes PDE 5 (see below). The reaction is started by the addition of the substrate, 0.5 μM of [^3H] cGMP (approximately 6,000 CPM/test). The final volume is […]. Test substances are prepared as stock solutions in DMSO. The DMSO concentration in the reaction mixture is 1% v/v. The PDE 5 activity is not affected by this concentration of DMSO. After the reaction is started by the addition of substrate, the samples are incubated for 30 minutes at 37° C. The reaction is stopped by heating the test tubes for 2 minutes at 110° C. The samples remain for a further 10 minutes in ice. The addition of 30 μL of 5′-nucleotidase (1 mg/mL, from a Crotalus adamanteus snake poison suspension) is followed by an incubation for 10 minutes at 37° C. The samples are stopped on ice. After the addition of 400 μL of a (1:1:1) mixture of Dowex, water and ethanol, the samples are mixed well and incubated once again for 15 minutes on ice. The reaction vessels are centrifuged for 20 minutes at 3,000 g. Subsequently, 200 μL aliquots of the supernatant are transferred directly to scintillation vessels. After the addition of 3 mL of scintillator, the samples are measured in the Betacounter. The in each case nonspecific enzyme activities are determined in the presence of 100 μM of IBMX for the determination of the PDE 5 and subtracted from the test values.

For series [1], the system named is Rat fetal lung fibroblast cells (RFL-6). The series can be described thus: Reinforcement of NO donor-induced intracellular cGMP increase in rat fetal lung fibroblasts. The class given is cell-based. Conditions: RFL-6 cells. From the text: Rat fetal lung fibroblast cells (RFL-6) represent a suitable medium for investigating influence of the action of NO on the intracellular cGNP level (Ishii et al. 1991). The basic mechanism can be transferred to the smooth vascular musculature of the corpus cavemosum.
As a fuinction of the concentration, the inventive compounds reinforce the increase in the intracellular cGXD level induced by the NO donor S-nitroso-N-acetyl-D,L-penicillamine.

Series [2] relates to human corpus cavernosum strips. The series can be described thus: In vitro relaxation of human corpus cavernosum pre-contracted with noradrenalin. The class given is cell-based. To be noted: organ bath. Here is the method: Strips of human corpus cavernosum are pre-contracted in an organ bath with noradrenalin. For test compounds, the relaxation is determined as a function of the concentration.

The test system of a further series is human atrium tissue. The series can be described thus: Influencing cAMP and cGMP levels in human atrium strips. It counts as cell-based. To be noted: 1.0 μmoles/L, 10 minutes. The procedure: (§1) Strips of human atrium and human corpus cavernosum are incubated for 10 minutes with the test compounds at a concentration of 1.0 μmoles/L The preparations are frozen with liquid nitrogen and the resulting levels of the cyclic nucleotides are determined.

For series [3], the system named is human corpus cavernosum tissue. As to the kind of experiment: Influencing cAMP and cGMP levels in human corpus cavernosum strips. It counts as cell-based. To be noted: 1.0 μmoles/L, 10 minutes. The procedure: as §1

This is an account of results in patent US6465465B1, “Process for the treatment of erectile dysfunction and product therefor” (Arzneimittelwerk Dresden GmbH, priority 2000, dated 2002).

The term IC50 denotes the midpoint of a concentration-inhibition curve. By melting point is commonly meant the temperature, or range, at which the solid turns liquid. Compound `CCc1nc(C)c2c(=O)n(Cc3c(F)cccc3F)c3ccc(OC)nc3n12` [Example 12, 5-(2,6-difluorobenzyl)-1-ethyl-8-methoxy-3-methyl-imidazo[1,5-a]-pyrido[3,2-e]pyrazinone] came in with a melting point of 177 to 180 °C. Further, the IC50 on phosphodiesterase 5 turned out to be 38 nM.
“5-cyclohexyl-1-ethyl-8-methoxy-3-methyl-imidazo[1,5-a]-pyrido[3,2-e]pyrazinone [Example 1]”: the IC50 on phosphodiesterase 5 was determined as 25 nM.
`CCCc1nc(C)c2c(=O)n(Cc3c(F)cccc3Cl)c3ccc(OC)nc3n12` [Example 14, 5-(2-chloro-6-fluorobenzyl)-8-methoxy-3-methyl-1-propyl-imidazo[1,5-a]-pyrido[3,2-e]pyrazinone]: the melting point fell in the range of 159 to 162 °C. Moreover, the half-inhibitory concentration (IC50) at phosphodiesterase 5 stood at 8 nM.
In the same order, the values of `CCc1nc(C)c2c(=O)n(Cc3ccccc3)c3ccc(OC)nc3n12` [Example 2, 5-benzyl-1-ethyl-8-methoxy-3-methyl-imidazo[1,5-a]-pyrido[3,2-e]pyrazinone] are 166 to 167 °C and 203 nM.
The compound `CCc1nc(C)c2c(=O)n(Cc3ccc(Cl)cc3)c3ccc(OC)nc3n12` [Example 9, 5-(4-chlorobenzyl)-1-ethyl-8-methoxy-3-methyl-imidazo[1,5-a]-pyrido[3,2-e]pyrazinone] gave a melting point of 201 to 202 °C. Moreover, the half-inhibitory concentration (IC50) on phosphodiesterase 5 is 112 nM.
`CCc1nc(C)c2c(=O)n(Cc3ccccc3F)c3ccc(OC)nc3n12` [Example 5, 1-ethyl-5-(2-fluorobenzyl)-8-methoxy-3-methyl-imidazo[1,5-a]-pyrido[3,2-e]pyrazinone] returned a melting point of 186 to 187 °C. In addition, the IC50 on phosphodiesterase 5 stood at 59 nM.
In the case of “5-(2,6-dichlrobenzyl)-1-ethyl-8-methoxy-3-methyl-imidazol[1,5-a]-pyrido[3,2-e]pyrazinone [Example 10]”, the concentration for half-maximal inhibition (IC50) on phosphodiesterase 5 was determined as 132 nM.
In general, EC50 refers to the concentration giving half of the maximal effect. A lower EC50 goes with higher potency in that assay. In turn, `CCc1nc(C)c2c(=O)n(Cc3c(F)ccc(F)c3F)c3ccc(OC)nc3n12` [Example 13, 1-ethyl-8-methoxy-3-methyl-5-(2,3,6-trifluorobenzyl)-imidazo[1,5-a]-pyrido[3,2-e]pyrazinone] returned a melting point of 183 to 185 °C. Besides, the IC50 at phosphodiesterase 5 is 16 nM. In addition, the “effectiveness relative to the nonspecific PDE inhibitor IBMX” value in series [1] (cGMP level increase) amounted to 1000 times. In addition, the “increase in the intracellular cGMP level” value in series [1] (compound at 0.10 μmoles/l, NO donor S-nitroso-N-acetyl-D,L-penicillamine) was “significantly induces an increase”. In series [2], this compound returned an EC50 of 150 nM.
For `CCCc1nn(C)c2c(=O)[nH]c(-c3cc(S(=O)(=O)N4CCN(C)CC4)ccc3OCC)nc12` [sildenafil, reference compound], in the series on human atrium tissue, the “increase of cAMP level” value was found to be 240% and the “increase of cGMP level” value is given as 147%. In series [3], the “increase of cAMP level” value came to 238% and the “increase of cGMP level” value is on record as 15%.
For `CCc1nc(C)c2c(=O)n(Cc3ccc(OC)cc3)c3ccc(OC)nc3n12` [Example 7, 1-ethyl-8-methoxy-5-(4-methoxybenzyl)-8-methoxy-3-methyl-imidazo[1,5-a]-pyrido[3,2-e]pyrazinone], the melting point fell in the range of 156 to 158 °C. Also, the IC50 at phosphodiesterase 5 amounted to 104 nM.
Consider `CCCc1nc(C)c2c(=O)n(Cc3c(F)cccc3F)c3ccc(OC)nc3n12` [Example 15, 5-(2,6-difluorobenzyl)-8-methoxy-3-methyl-1-propyl-imidazo[1,5-a]-pyrido[3,2-e]pyrazinone], for which the melting point fell in the range of 171 to 172 °C. For the same compound, the half-inhibitory concentration (IC50) at phosphodiesterase 5 is 2 nM.
`CCc1nc(C)c2c(=O)n(Cc3c(F)cccc3Cl)c3ccc(OC)nc3n12` [Example 11, 5-(2-chloro-6-fluorobenzyl)-1-ethyl-8-methoxy-3-methyl-imidazo[1,5-a]-pyrido[3,2-e]pyrazinone] gave a melting point of 197 to 200 °C. The IC50 at phosphodiesterase 5 is 19 nM. In addition, in the series on human atrium tissue, the “increase of cAMP level” value was determined as 11% and the “increase of cGMP level” value is recorded as 247%. Further, in series [3], the “increase of cAMP level” value is recorded as 80% and the “increase of cGMP level” value was 214%.
As to `CCCc1nc(C)c2c(=O)n(Cc3c(F)ccc(F)c3F)c3ccc(OC)nc3n12` [Example 16, 8-methoxy-3-methyl-1-propyl-5-(2,3,6-trifluorobenzyl)-imidazo[1,5-a]-pyrido[3,2-e]pyrazinone], the melting point was 197 to 199 °C. On phosphodiesterase 5, the IC50 came to 5 nM.
`CCc1nc(C)c2c(=O)n(Cc3ccc(F)cc3)c3ccc(OC)nc3n12` [Example 8]: the melting point was 189 to 191 °C. Besides, the half-inhibitory concentration (IC50) at phosphodiesterase 5 was found to be 126 nM.
